# Reference: patent US20120015923A1, “USE OF ANDROGRAPHOLIDE COMPOUNDS FOR TREATING INFLAMMATION AND AIRWAY DISORDERS” (NATIONAL UNIVERSITY OF SINGAPORE, priority 2009, published 2012)
# What was measured:
# [1] = test system: OVA-induced inflammatory cell recruitment; test: BAL fluid total and differential inflammatory cell counts, OVA mouse asthma model; format: in vivo, BALB/c mice; settings: for total cell count in BAL fluid: 0.1, 0.5 and 1 mg/kg i.p. 2 h before and 10 h after each challenge; for total cell count in BAL fluid / eosinophil count in BAL fluid: BAL fluid 24 hours after last OVA aerosol, vs DMSO control; for eosinophil count in BAL fluid: 0.1, 0.5 and 1 mg/kg i.p.; for OVA-induced inflammatory cell counts in BAL fluid: sensitized mice 24 hours after last OVA aerosol challenge, 0.1, 0.5, 1 mg/kg
# Procedure: Female BALB/c mice (Interfauna, East Yorkshire, UK), were housed in appropriate cages (maximum 4 mice/cage) at the Animal Holding Unit (AHU), NUS. The temperature and humidity of the housing environment were maintained at approximately 22° C. and 55% respectively. Commercial mouse feed and water were provided ad libitum. The beddings were changed three times a week to ensure cleanliness of the living conditions. The handling of mice and the experiments carried out strictly followed the guidelines approved by the Institutional Animal Care and Use Committee (IACUC) of NUS, Singapore.
# All mice were acclimatized for at least one week before sensitization. A sensitization mixture was prepared by dissolving 20 μg of OVA and 4 mg of Al(OH)3 in 0.1 ml of Saline. The murine asthma model was developed by sensitizing the mice with 0.1 ml of sensitization mixture on Day 0 and Day 14 using intraperitoneal (i.p.) injections.
# The sensitized mice were subjected to airway challenge to produce both the control model as well as the asthma model. A challenge mix was prepared by dissolving 0.15 g OVA into 15 ml of saline solution. The mice were then challenged with aerosolized 1% OVA for 30 minutes on Day 22, 23, 24 to stimulate asthmatic response. A negative control for the asthma model was developed by performing saline challenge on several mice. In this case, 15 ml of saline was used as the challenge mix.
# Andrographolide or DDAG alone (0.1, 0.5, and 1 mg/kg; Sigma, St. Louis, Mo.) or vehicle (1% dimethyl sulfoxide [DMSO]) in 0.1 ml saline was given by intraperitoneal injections 2 hour before and 10 hours after each OVA aerosol challenge. Andrographolide or 14-deoxy-11,12-didehydroandrographolide (DDA) were prepared from stock. DMSO was used as a solvent to dissolve Andrographolide or DDA. A stock solution of 10 mg/ml was prepared and stored at −20° C. When used, the stock solution was thawed and diluted with Saline solution to form three different drug concentrations: 0.01 mg/ml, 0.05 mg/ml and 0.1 mg/ml.
# Bronchoalveolar lavage (BAL) was conducted on Day 25, 24 hours after the final OVA/saline challenge. Mice were anaesthetized by 0.3 ml i.p. injections of an anesthetic cocktail (ketamine: medetomidine: H2O=3:4:33, Parnell, Alexandria NSW, Australia & Pfizer, Auckland, New Zealand) with 27 G½ sterile needle (PrecisionGlide®). Mice were sacrificed by cervical dislocation 5 minutes after anesthetization. 25 G½ sterile needles (PrecisionGlide®) were used for blood extraction. […] Tracheotomy was then performed and a small transverse incision was made on the exposed trachea. Blunt needles (20 G), which were connected to 1 ml sterile syringes, were inserted into the trachea through this incision and 0.5 ml of ice-cold PBS (4° C.) was instilled thrice into the lungs (0.5 ml×3). About 1.2-1.4 ml of BAL fluid was retrieved from each mouse and was kept in −80° C. for subsequent experiments.
# BAL fluid collected from the lungs of the mouse was centrifuged at 3000 rpm for 5 min at 4° C. The supernatant was collected and stored at −80° C. The pellet was resuspended in 200 μl of 0.875% NH4Cl (8.75 mg NH4Cl in 1 ml MilliQ water) and incubated for 5 minutes at room temperature to remove unwanted erythrocytes. The cell suspension was then centrifuged at 3000 rpm for 5 min at 4° C. The supernatant was discarded and the pellet containing inflammatory cells was resuspended in 200 μl of RPMI with 1% BSA (10 mg BSA in 1 ml RPMI). The total number of viable cells was enumerated using a haemocytometer (10 μl of 0.4% trypan blue: 10 μl of cell suspension), under a microscope at 200×magnification.
# Following the total cell count, dilutions were performed on the BAL fluid collected with the RPMI/BSA solution (1×10^5 cells per 150 μl of RPMI/BSA). Cytocentrifugation was then carried out on all samples using a Cytospin centrifuge (Thermo Shandon, Pittsburgh, USA) at 600 g for 10 minutes to fix the cells on glass slides. […]
# OVA-induced AHR = test: Airway hyper-responsiveness (AHR) to intravenous methacholine; format: in vivo, BALB/c mice; settings: 1 mg/kg; for OVA-induced airway hyperresponsiveness (AHR) to methacholine: OVA-challenged mice
# Procedure: Mice were anesthetized and tracheotomy was performed as described above. The internal jugular vein was cannulated and connected to a microsyringe for intravenous methacholine administration. Airway resistance (RI) and dynamic compliance (Cdyn) in response to increasing concentrations of mechacholine were recorded using a whole body plethysmograph chamber (Buxco, Sharon, Conn.) and ventilated mechanically by a ventilator via the tube that was inserted into the trachea at a tidal volume of 200 μl/breadth and a breathing rate of 150/min. Airflow and pressure changes were detected by respective transducers, recorded and analyzed by Biosystem XA software (Buxco, Sharon, Conn., USA). Results are expressed as a percentage of the respective basal values in response to phosphate buffered saline (PBS).
# [2] = OVA-challenged mice, high dose 1 mg/kg i.p.
# [3] = OVA-challenged, mechanically ventilated mice
Structure (SMILES),total cell count in BAL fluid ([1]; OVA-challenged mice),eosinophil count in BAL fluid ([1]; OVA-challenged mice),"OVA-induced lymphocyte counts in BAL fluid ([1]; OVA-challenged mice, dose not stated)",OVA-induced inflammatory cell counts in BAL fluid [1],OVA-induced airway hyperresponsiveness (AHR) to methacholine (OVA-induced AHR),"lymphocyte count in BAL fluid [1, 2]","macrophage count in BAL fluid [1, 2]",anti-inflammatory effects in mouse asthma model ([1]; low dose given alone),dynamic compliance (Cdyn) in response to methacholine (OVA-induced AHR; [3]),lung resistance (RI) in response to methacholine (OVA-induced AHR; [3])
C=C1CC[C@@H]2[C@](C)(CO)[C@H](O)CC[C@@]2(C)[C@@H]1C/C=C1/C(=O)OC[C@H]1O [Andrographolide],inhibited,inhibited,inhibited,dose-dependently reduced,blocked,,,,,
"C=C1CCC2C(C)(CO)C(O)CCC2(C)C1C=CC1=CCOC1=O (centres unmarked) [DDAG, 14-Deoxy-11,12-didehydroandrographolide]",drastically decreased,drastically decreased,,dose-dependently reduced,significantly inhibited,reduced,reduced,do not show any anti-inflammatory effects,restored,dramatically reduced
